ChEMBL document CHEMBL5584327, “Phenylstyrylpyrimidine derivatives as potential multipotent therapeutics for Alzheimer's disease” (RSC Med Chem, 2024)
Activity calls are given as the source filed them. The rule behind the calls is not given here.

Legend:
Acetylcholinesterase [1] = molecular target: Acetylcholinesterase (Homo sapiens, UniProt P22303); test: Inhibition of AChE (unknown origin)
[2] = molecular target: T1, Amine oxidase [flavin-containing] B (Homo sapiens, UniProt P27338); test: Inhibition of human MAO-B using p-tyramine as substrate preincubated for 15 mins followed by substrate addition and measured after 30 mins by Amplex Red reagent based fluorescence analysis
T1 sequence (P27338 whole entry): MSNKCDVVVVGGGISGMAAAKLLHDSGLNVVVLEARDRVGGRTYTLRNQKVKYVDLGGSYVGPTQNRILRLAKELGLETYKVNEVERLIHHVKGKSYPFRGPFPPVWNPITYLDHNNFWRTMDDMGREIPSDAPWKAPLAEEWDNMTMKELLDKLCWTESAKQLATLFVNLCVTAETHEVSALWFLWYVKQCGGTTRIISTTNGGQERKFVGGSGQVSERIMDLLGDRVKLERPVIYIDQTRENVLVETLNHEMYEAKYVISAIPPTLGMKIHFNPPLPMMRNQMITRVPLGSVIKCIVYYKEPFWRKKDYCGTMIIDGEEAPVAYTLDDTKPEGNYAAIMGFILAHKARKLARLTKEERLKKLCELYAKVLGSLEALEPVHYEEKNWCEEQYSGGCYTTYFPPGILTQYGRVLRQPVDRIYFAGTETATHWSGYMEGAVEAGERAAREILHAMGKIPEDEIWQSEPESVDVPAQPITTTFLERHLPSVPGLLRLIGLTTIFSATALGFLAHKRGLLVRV

[3] = molecular target: Acetylcholinesterase (Electrophorus electricus) (UniProt O42275); test: Inhibition of electric eel AChE at 20 uM using acetylthiocholine iodide as substrate incubated for 30 min by DTNB reagent based Ellman's method relative to control
[4] = molecular target: Cholinesterase (Equus caballus) (UniProt P81908); test: Inhibition of equine BuChE at 20 uM using butyryl-thiocholine iodide as substrate incubated for 30 min by DTNB reagent based Ellman's method relative to control
[5] = molecular target: T2, Amine oxidase [flavin-containing] A (Homo sapiens, UniProt P21397); test: Inhibition of human MAO-A at 10 uM using p-tyramine as substrate incubated for 30 mins by Amplex Red reagent based fluorescence analysis relative to control; settings: 0.5 h
T2 sequence (P21397 whole entry): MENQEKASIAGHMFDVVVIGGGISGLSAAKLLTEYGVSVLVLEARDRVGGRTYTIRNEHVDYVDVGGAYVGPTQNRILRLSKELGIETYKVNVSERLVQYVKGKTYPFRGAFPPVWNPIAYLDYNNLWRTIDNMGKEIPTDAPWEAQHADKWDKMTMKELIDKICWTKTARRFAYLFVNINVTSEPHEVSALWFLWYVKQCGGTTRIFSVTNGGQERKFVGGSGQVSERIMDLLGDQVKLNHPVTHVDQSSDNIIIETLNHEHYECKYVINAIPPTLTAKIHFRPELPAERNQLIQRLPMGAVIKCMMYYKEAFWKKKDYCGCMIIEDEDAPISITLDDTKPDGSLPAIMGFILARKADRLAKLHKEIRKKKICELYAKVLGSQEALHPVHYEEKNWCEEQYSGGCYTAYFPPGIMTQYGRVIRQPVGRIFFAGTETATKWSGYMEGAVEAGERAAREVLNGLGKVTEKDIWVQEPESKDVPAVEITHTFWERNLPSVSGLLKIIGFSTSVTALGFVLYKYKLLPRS

[6] = molecular target: T1, Amine oxidase [flavin-containing] B; test: Inhibition of human MAO-B at 10 uM using p-tyramine as substrate incubated for 30 mins by Amplex Red reagent based fluorescence analysis relative to control; settings: 0.5 h
[7] = molecular target: Cholinesterase (Equus caballus) (UniProt P81908); test: Inhibition of equine BuChE at 25 uM using butyryl-thiocholine iodide as substrate incubated for 30 min by DTNB reagent based Ellman's method
[8] = Inhibition of MAO (unknown origin); set-up: species or system Homo sapiens
[9] = molecular target: Acetylcholinesterase (Electrophorus electricus) (UniProt O42275); test: (§1) Reversible inhibition of electric eel AChE assessed as residual activity at 100 time IC50 concentration using acetylthiocholine iodide as substrate incubated for 30 min followed by 100-fold dilution with substrate and buffer solutions by DTNB reagent based Ellman's method (reference value: 100 +/- 0.37%)
Acetylcholinesterase [10] = molecular target: Acetylcholinesterase (Electrophorus electricus, UniProt O42275); test: Inhibition of electric eel AChE using acetylthiocholine iodide as substrate incubated for 30 min by DTNB reagent based Ellman's method
[11] = molecular target: Amyloid-beta precursor protein (Homo sapiens) (UniProt P05067); test: Inhibition of amyloid beta (1 to 42) (unknown origin) aggregation at 10 uM incubated for 24 hrs by ThT assay relative to control
[12] = molecular target: Acetylcholinesterase (Electrophorus electricus) (UniProt O42275); test: Inhibition of electric eel AChE assessed as residual activity at 100 time IC50 concentration using acetylthiocholine iodide as substrate incubated for 30 min by DTNB reagent based Ellman's method (reference value: 100 +/- 0.37%)
[13] = Cytotoxicity against human SH-SY5Y cells assessed as cell viability at 1 uM by MTT assay (reference value: 100 +/- 0.22); assay type: toxicity, cell-based; settings: read-out: Activity
[14] = molecular target: T1, Amine oxidase [flavin-containing] B; test: Inhibition of human MAO-B using p-tyramine as substrate incubated for 30 mins by Amplex Red reagent based fluorescence analysis
[15] = molecular target: Acetylcholinesterase (Electrophorus electricus) (UniProt O42275); test: Non-competitive inhibition of electric eel AChE assessed as decrease in Vmax using acetylthiocholine iodide as substrate incubated for 30 min by Ellman's method based Lineweaver-Burk plot analysis
[16] = molecular target: T1, Amine oxidase [flavin-containing] B; test: Inhibition of human MAO-B assessed as residual activity at 10 time IC50 concentration using p-tyramine as substrate incubated for 30 mins by Amplex Red reagent based fluorescence analysis (reference value: 100 +/- 0.37%); settings: 0.5 h
[17] = Cytotoxicity against human SH-SY5Y cells assessed as cell viability at 5 uM by MTT assay (reference value: 100 +/- 0.22); assay type: toxicity, cell-based; settings: read-out: Activity
[18] = molecular target: T1, Amine oxidase [flavin-containing] B; test: Reversible inhibition of human MAO-B assessed as residual activity at 10 time IC50 concentration using p-tyramine as substrate incubated for 30 mins followed by 100-fold dilution with substrate and buffer solutions by Amplex Red reagent based fluorescence analysis (reference value: 100 +/- 0.37%); settings: 0.5 h
[19] = molecular target: Acetylcholinesterase (Electrophorus electricus) (UniProt O42275); test: as §1, with “at 10” for “at 100”
[20] = molecular target: Amyloid-beta precursor protein (Homo sapiens) (UniProt P05067); test: Inhibition of amyloid beta (1 to 42) (unknown origin) aggregation at 10 uM incubated for 48 hrs by ThT assay relative to control
[21] = molecular target: Acetylcholinesterase (Electrophorus electricus) (UniProt O42275); test: Inhibition of electric eel AChE assessed as residual activity at 10 time IC50 concentration using acetylthiocholine iodide as substrate incubated for 30 min by DTNB reagent based Ellman's method (reference value: 100 +/- 0.37%)
[22] = molecular target: T1, Amine oxidase [flavin-containing] B; test: Inhibition of human MAO-B assessed as residual activity at 100 time IC50 concentration using p-tyramine as substrate incubated for 30 mins by Amplex Red reagent based fluorescence analysis (reference value: 100 +/- 0.37%); settings: 0.5 h
[23] = molecular target: Acetylcholinesterase (Electrophorus electricus) (UniProt O42275); test: Non-competitive inhibition of electric eel AChE assessed as increase in Km using acetylthiocholine iodide as substrate incubated for 30 min by Ellman's method based Lineweaver-Burk plot analysis
[24] = molecular target: T1, Amine oxidase [flavin-containing] B; test: Reversible inhibition of human MAO-B assessed as residual activity at 100 time IC50 concentration using p-tyramine as substrate incubated for 30 mins followed by 100-fold dilution with substrate and buffer solutions by Amplex Red reagent based fluorescence analysis (reference value: 100 +/- 0.37%); settings: 0.5 h
[25] = Cytotoxicity against human SH-SY5Y cells assessed as cell viability at 25 uM by MTT assay (reference value: 100 +/- 0.22); assay type: toxicity, cell-based; settings: read-out: Activity
[26] = molecular target: T2, Amine oxidase [flavin-containing] A; test: Inhibition of human MAO-A at 25 uM using p-tyramine as substrate incubated for 30 mins by Amplex Red reagent based fluorescence analysis; settings: 0.5 h
[27] = molecular target: T1, Amine oxidase [flavin-containing] B; test: Inhibition of MAO-B (unknown origin)

Cholinesterase (Equus caballus), sequence (P81908 whole entry): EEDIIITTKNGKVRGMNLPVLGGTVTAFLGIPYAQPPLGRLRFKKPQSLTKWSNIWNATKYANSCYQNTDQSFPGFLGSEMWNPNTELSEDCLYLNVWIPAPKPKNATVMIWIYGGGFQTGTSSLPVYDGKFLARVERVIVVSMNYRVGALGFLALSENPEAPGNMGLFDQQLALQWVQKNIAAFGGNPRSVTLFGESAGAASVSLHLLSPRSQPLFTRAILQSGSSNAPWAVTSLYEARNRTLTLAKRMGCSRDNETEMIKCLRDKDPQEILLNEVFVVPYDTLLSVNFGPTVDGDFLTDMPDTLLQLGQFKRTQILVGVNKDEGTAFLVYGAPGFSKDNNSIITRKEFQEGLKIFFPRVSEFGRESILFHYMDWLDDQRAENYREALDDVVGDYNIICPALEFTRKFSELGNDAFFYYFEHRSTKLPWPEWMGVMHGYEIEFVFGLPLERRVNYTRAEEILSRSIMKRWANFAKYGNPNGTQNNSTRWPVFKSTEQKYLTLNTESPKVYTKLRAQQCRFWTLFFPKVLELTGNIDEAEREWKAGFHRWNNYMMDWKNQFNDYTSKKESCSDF
Acetylcholinesterase (Electrophorus electricus), sequence (O42275 24-633 limits assumed): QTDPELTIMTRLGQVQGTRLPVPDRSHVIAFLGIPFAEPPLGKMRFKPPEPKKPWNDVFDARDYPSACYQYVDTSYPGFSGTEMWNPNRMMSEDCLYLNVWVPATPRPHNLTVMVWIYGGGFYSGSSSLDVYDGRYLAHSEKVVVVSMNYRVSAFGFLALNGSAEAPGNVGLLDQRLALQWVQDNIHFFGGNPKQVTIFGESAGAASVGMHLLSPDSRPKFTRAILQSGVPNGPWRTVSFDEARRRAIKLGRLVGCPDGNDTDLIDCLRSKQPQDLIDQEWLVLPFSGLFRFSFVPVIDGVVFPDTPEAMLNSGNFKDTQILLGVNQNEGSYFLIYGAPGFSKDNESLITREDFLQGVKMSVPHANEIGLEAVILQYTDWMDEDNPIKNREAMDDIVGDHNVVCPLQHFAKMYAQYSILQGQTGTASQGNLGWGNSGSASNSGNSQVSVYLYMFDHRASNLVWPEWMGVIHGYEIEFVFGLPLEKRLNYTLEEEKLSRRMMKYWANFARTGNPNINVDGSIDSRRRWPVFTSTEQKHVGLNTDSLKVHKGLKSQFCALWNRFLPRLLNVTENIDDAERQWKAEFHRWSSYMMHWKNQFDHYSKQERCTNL
Acetylcholinesterase (Electrophorus electricus, UniProt O42275), sequence (O42275 whole entry): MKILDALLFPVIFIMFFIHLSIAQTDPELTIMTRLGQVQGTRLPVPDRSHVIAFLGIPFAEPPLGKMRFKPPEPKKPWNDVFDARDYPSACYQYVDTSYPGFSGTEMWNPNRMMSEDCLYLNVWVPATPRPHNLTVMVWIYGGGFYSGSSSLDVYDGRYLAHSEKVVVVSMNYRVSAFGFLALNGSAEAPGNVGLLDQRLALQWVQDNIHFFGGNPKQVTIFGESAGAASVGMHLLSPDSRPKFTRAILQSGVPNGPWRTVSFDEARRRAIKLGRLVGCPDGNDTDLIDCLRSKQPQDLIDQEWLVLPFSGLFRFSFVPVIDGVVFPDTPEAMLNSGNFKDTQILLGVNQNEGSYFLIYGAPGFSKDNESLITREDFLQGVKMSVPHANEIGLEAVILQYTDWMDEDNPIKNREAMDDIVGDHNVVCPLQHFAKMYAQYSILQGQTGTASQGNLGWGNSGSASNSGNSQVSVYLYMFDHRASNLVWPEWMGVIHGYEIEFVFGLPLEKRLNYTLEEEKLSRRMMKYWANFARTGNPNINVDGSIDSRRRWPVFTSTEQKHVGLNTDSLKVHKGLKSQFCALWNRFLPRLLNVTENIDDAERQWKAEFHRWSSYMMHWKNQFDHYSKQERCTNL
Amyloid-beta precursor protein (Homo sapiens), sequence (P05067 whole entry): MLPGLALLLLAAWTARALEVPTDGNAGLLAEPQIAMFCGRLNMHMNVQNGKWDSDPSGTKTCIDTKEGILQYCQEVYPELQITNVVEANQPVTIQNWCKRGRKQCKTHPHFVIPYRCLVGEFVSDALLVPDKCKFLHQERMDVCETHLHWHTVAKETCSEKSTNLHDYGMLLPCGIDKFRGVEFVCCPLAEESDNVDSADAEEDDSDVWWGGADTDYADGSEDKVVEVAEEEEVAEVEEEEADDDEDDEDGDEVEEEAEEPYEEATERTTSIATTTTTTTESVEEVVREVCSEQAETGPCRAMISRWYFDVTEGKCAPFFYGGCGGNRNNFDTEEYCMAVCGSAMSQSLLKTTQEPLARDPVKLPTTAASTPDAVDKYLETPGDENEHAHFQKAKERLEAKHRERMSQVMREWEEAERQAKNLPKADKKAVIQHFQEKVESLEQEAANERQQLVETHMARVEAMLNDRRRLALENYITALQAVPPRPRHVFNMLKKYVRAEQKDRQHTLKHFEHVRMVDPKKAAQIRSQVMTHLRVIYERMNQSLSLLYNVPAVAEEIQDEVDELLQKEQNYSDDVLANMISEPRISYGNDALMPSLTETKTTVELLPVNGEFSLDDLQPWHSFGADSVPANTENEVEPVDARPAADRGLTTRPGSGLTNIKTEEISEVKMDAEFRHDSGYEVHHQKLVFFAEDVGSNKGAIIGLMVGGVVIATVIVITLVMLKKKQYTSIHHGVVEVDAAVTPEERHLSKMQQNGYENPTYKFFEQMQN
Acetylcholinesterase (Homo sapiens, UniProt P22303), sequence (P22303 whole entry): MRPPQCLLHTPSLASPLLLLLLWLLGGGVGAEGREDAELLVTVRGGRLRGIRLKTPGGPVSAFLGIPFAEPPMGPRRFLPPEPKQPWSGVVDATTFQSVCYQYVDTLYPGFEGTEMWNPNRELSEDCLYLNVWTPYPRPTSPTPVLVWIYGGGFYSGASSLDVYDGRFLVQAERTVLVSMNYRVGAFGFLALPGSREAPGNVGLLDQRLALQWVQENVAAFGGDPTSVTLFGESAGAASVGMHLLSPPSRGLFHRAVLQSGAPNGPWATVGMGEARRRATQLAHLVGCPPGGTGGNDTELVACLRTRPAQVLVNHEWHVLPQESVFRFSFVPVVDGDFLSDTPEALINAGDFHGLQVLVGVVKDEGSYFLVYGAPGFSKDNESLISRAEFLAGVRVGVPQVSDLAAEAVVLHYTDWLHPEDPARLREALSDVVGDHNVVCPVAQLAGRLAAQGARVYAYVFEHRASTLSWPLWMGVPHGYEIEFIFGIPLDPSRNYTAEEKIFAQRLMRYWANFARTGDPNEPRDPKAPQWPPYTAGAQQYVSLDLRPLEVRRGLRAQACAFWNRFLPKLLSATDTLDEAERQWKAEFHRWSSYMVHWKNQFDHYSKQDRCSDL

## C#CCOc1ccc(-c2cc(-c3ccc(OCC#C)cc3)nc(N)n2)cc1
Acetylcholinesterase [1]
  IC50: 1.35 µM

## C#CCOc1ccccc1-c1cc(-c2ccc(Cl)cc2)nc(-c2ccccc2)n1
[2]
  IC50: 0.48 µM

## C#CCOc1cccc(-c2cc(/C=C/c3ccccc3)nc(C)n2)c1
[3]
  inhibition: 61.6%
[4]
  inhibition: 3.17%
[5]
  inhibition at 10 µM: 15.5%
[6]
  inhibition at 10 µM: 2.96%

## C#CCOc1ccc(-c2cc(/C(C)=C/c3ccccc3)nc(C)n2)cc1
[3]
  inhibition: 60.5%
[7]
  inhibition: inactive
[5]
  inhibition at 10 µM: 10.9%
[6]
  inhibition at 10 µM: 15.7%

## O=C1c2ccccc2-c2cnc(-c3ccccc3)nc21
[8]
  IC50: 2.37 µM

## C#CCOc1cccc(-c2cc(/C=C/c3ccccc3)ncn2)c1
[3]
  inhibition: 69.2%
[9]
  Activity: 47.9%
Acetylcholinesterase [10]
  IC50: 9.02 µM
[11]
  inhibition: 29.3%
[12]
  Activity: 13.6%
[13]
  viability at 1 µM: 91%
[14]
  IC50: 4.93 µM
[15]
  inhibition: Active
[16]
  Activity: 2.6%
[17]
  viability at 5 µM: 90.7%
[18]
  Activity: 34.91%
[19]
  Activity: 96.7%
[20]
  inhibition: 33%
[4]
  inhibition: 6.43%
[21]
  Activity: 5.18%
[5]
  inhibition at 10 µM: 13.9%
[6]
  inhibition at 10 µM: 76.4%
[22]
  Activity: 3.4%
[23]
  inhibition: Active
[24]
  Activity: 36.72%
[25]
  viability at 25 µM: 86.5%

## C#CCOc1ccc(-c2cc(/C=C/c3ccccc3)nc(N)n2)cc1
[3]
  inhibition: 68.5%
[4]
  inhibition: 2.12%
[5]
  inhibition at 10 µM: 8.61%
[6]
  inhibition at 10 µM: 9.28%

## C#CCOc1ccc(-c2cc(/C=C/c3ccccc3)nc(C)n2)cc1
[3]
  inhibition: 62.8%
[4]
  inhibition: 8.16%
[5]
  inhibition at 10 µM: 10%
[6]
  inhibition at 10 µM: 20.9%

## N#Cc1cccnc1N1CCN(c2cc(Oc3cccc4cccnc34)ncn2)CC1
Acetylcholinesterase [1]
  IC50: 0.036 µM

## C#CCOc1ccc(-c2cc(/C(C)=C/c3ccccc3)nc(N)n2)cc1
[3]
  inhibition: 71.3%
[4]
  inhibition: 3.04%
[5]
  inhibition at 10 µM: 8.66%
[6]
  inhibition at 10 µM: 1.79%

## C#CCOc1ccc(-c2cc(/C(C)=C\c3ccccc3)ncn2)cc1
[3]
  inhibition: 69%
[9]
  Activity: 42.9%
Acetylcholinesterase [10]
  IC50: 9.29 µM
[11]
  inhibition: 21.6%
[12]
  Activity: 18.6%
[13]
  viability at 1 µM: 98.1%
[14]
  IC50: 7.26 µM
[15]
  inhibition: Active
[16]
  Activity: 2.79%
[17]
  viability at 5 µM: 96.3%
[18]
  Activity: 30.37%
[19]
  Activity: 97.1%
[26]
  inhibition (INH): Not Active
[20]
  inhibition: 23.2%
[4]
  inhibition: 9.69%
[21]
  Activity: 7.45%
[6]
  inhibition at 10 µM: 71.2%
[22]
  Activity: 2.79%
[23]
  inhibition: Active
[24]
  Activity: 36.07%
[25]
  viability at 25 µM: 95.7%

## C#CCOc1ccc(-c2cc(/C=C\c3ccccc3)ncn2)cc1
[3]
  inhibition: 63.4%
Acetylcholinesterase [10]
  IC50: 7.49 µM
[7]
  inhibition: inactive
[14]
  IC50: 10.9 µM
[26]
  inhibition (INH): Not Active
[6]
  inhibition at 10 µM: 67.5%

## Oc1ccc(/C=C/c2cc(O)cc(O)c2)cc1
[11]
  inhibition: 54.6%

## C#CCOc1cccc(-c2cc(/C=C/c3ccccc3)nc(-c3ccccc3)n2)c1
[3]
  inhibition: 69.6%
[4]
  inhibition: 1.5%
[5]
  inhibition at 10 µM: 0.4%
[6]
  inhibition at 10 µM: 4.89%

## C#CCOc1ccc(-c2cc(/C=C/c3ccccc3)nc(-c3ccccc3)n2)cc1
[3]
  inhibition: 70.2%
[4]
  inhibition: 3.6%
[5]
  inhibition at 10 µM: 20.9%
[6]
  inhibition at 10 µM: 7.18%

## C#CCOc1cccc(-c2cc(/C(C)=C\c3ccccc3)nc(N)n2)c1
[3]
  inhibition: 66.3%
Acetylcholinesterase [10]
  IC50: 8.48 µM
[14]
  IC50: 8.15 µM
[4]
  inhibition: 7.03%
[5]
  inhibition at 10 µM: 12%
[6]
  inhibition at 10 µM: 69.7%

## C#CCNc1ccccc1-c1cc(-c2ccc(OCCN3CCCCC3)cc2)nc(N)n1
[27]
  IC50: 0.37 µM
Acetylcholinesterase [1]
  IC50: 40 µM

## C#CCOc1ccc(-c2cc(/C=C/c3ccccc3)nc(C)n2)cc1C
[3]
  inhibition: 67%
[7]
  inhibition: inactive
[5]
  inhibition at 10 µM: 0.96%
[6]
  inhibition at 10 µM: 0.27%

## C#CCOc1cccc(-c2cc(/C(C)=C/c3ccccc3)ncn2)c1
[3]
  inhibition: 65.7%
[7]
  inhibition: inactive
[5]
  inhibition at 10 µM: 0.87%
[6]
  inhibition at 10 µM: 23.4%

## C#CCOc1ccccc1-c1cc(/C=C/c2ccccc2)nc(-c2ccccc2)n1
[3]
  inhibition: 64.2%
[4]
  inhibition: 3.6%
[5]
  inhibition at 10 µM: 9.57%
[6]
  inhibition at 10 µM: 3.49%

## C#CCOc1ccc(-c2cc(/C=C/c3ccccc3)nc(N)n2)cc1C
[3]
  inhibition: 62.6%
[7]
  inhibition: inactive
[5]
  inhibition at 10 µM: 13.1%
[6]
  inhibition at 10 µM: 11.9%
